From patent publication EP4691485A1, “MUCOSAL ADJUVANT” (priority 2023, dated 2024)

Assays:
Assay type in all cases: in vivo, BALB/c mice
[1] = system: A/Singapore/GP1908/2015(IVR-180)(H1N1)pdm09; conditions: HA 0.1 µg alone or with 3 µg adjuvant, nasal, twice; for Serum HI antibody titers, Geometric Mean Titer (GMT): 3-week interval, serum day 38
[2] = system: Influenza virus HA protein antigen: A/Guangdong-Maonan/SWL1536/2019(CNIC-1909)(H1N1); assay: Comparative test with various adjuvants: ELISA of antigen-specific IgA and IgG (Example 6); conditions: HA 0.1 µg + 1 µg TY001 S-form (0.01% chondroitin sulfate sodium), twice
Experimental: For the nasal administration test, 8-week-old female BALB/c mice (6 mice per group) were used. Influenza virus HA protein antigen: A/Guangdong-Maonan/SWL1536/2019(CNIC-1909)(H1N1) (Osaka University Microbial Disease Research Institute) was used. Vaccine formulations included HA 0.1 µg alone, and those co-administered intranasally with 1 µg of TY001 S-form (formulation containing 0.01% chondroitin sulfate sodium as an additive), Cholera Toxin B subunit (CTB) (Fujifilm Wako Pure Chemical Corporation), CpG ODN (ODN 1826) (InvivoGen), or Polyinosinic-polycytidylic acid (Poly(I:C)) (InvivoGen). Each vaccine solution was administered into the nasal cavity, 5 µL into each nostril (10 µL/mouse), twice at a 3-week interval. A group subcutaneously administered with HA 0.1 µg + Alum 2 mg was also used. Two weeks after the second administration (day 35), nasal wash fluid, bronchoalveolar lavage fluid, and serum were collected. Antigen-specific IgA in nasal wash fluid and bronchoalveolar lavage fluid, and IgG in serum and bronchoalveolar lavage fluid were measured by ELISA.

[3] = system: influenza virus (A/Singapore/GP1908/2015(IVR-180)(H1N1)pdm09); conditions: HA 0.1 µg alone or with 3 µg adjuvant, twice, 3-week interval, sampled day 38, Fig. 1
[4] = system: HA antigen (A/Singapore/GP1908/2015(IVR-180)(H1N1)pdm09); assay: ELISA of antigen-specific IgA and IgG after nasal vaccination (Example 1); conditions: HA 0.1 µg alone or with 3 µg adjuvant, twice; for antigen-specific IgA level in the nasal lavage fluid: day 38, 2^2-fold dilution, Fig. 2; for antigen-specific IgG level in serum: day 38, 2^12-fold dilution, Fig. 3
SARS-CoV-2 S protein = assay: ELISA of antigen-specific IgA and IgG after nasal vaccination with SARS-CoV-2 antigen (Example 3); conditions: 3 µg S protein alone or with 0.3 µg TY001 S-form
[5] = system: Influenza virus HA protein antigen: A/Guangdong-Maonan/SWL1536/2019(CNIC-1909)(H1N1); assay: ELISA of antigen-specific IgA and IgG after vaccination and virus challenge (Example 5); conditions: twice, HA 0.1 µg alone or with TY001 S-form 0.01-0.3 µg and 0.01% chondroitin sulfate sodium
Experimental: (§1) For the nasal administration test, 7-week-old female BALB/c mice (9-10 mice per group) were used. Influenza virus HA protein antigen: A/Guangdong-Maonan/SWL1536/2019(CNIC-1909)(H1N1) and influenza virus: A/Guangdong-Maonan/SWL1536/2019(CNIC-1909)(H1N1) (Osaka University Microbial Disease Research Institute) were used. The vaccine formulations included HA 0.1 µg alone, and a formulation containing HA 0.1 µg co-administered with TY001 S-form at doses of 0.01-0.3 µg, and 0.01% chondroitin sulfate sodium as an additive. Vaccine solutions were administered into the nasal cavity, 5 µL into each nostril (10 µL/mouse), twice at a 3-week interval. As a control, a group subcutaneously administered with HA 0.1 µg alone was set up. Two weeks after the second administration (day 35), viral fluid was administered at 2 µL into each nostril (1x10^5 TCID50/mouse). Three days later (day 38), nasal wash fluid and serum were collected. The viral titer in the nasal wash fluid, antigen-specific IgA in nasal wash fluid, and IgG in serum were measured by ELISA.

[6] = system: influenza virus: A/Guangdong-Maonan/SWL1536/2019(CNIC-1909)(H1N1); assay: Infection protection test: viral titer in nasal wash fluid (Example 5)
Experimental: as §1

[7] = system: Influenza virus HA protein antigen A/Guangdong-Maonan/SWL1536/2019(CNIC-1909)(H1N1); assay: ELISA of antigen-specific IgA and IgG, improved formulation with chondroitin sulfate sodium (Example 4); conditions: Fig. 7
Experimental: For the nasal administration test, 7-week-old female BALB/c mice were used, with 8 mice per group. Influenza virus HA protein antigen A/Guangdong-Maonan/SWL1536/2019(CNIC-1909)(H1N1) (Research Foundation for Microbial Diseases of Osaka University) was used. Vaccine groups included HA 0.1 µg alone, or HA 0.1 µg with 0.1 µg of TY001 S-form as adjuvant, and groups with/without 0.01% chondroitin sulfate sodium as an additive.
The vaccine solution was administered intranasally to mice at 5 µL per nostril (10 µL/mouse) twice, with a 3-week interval. Two weeks after the second administration (day 35), nasal lavage fluid and serum were collected, and antigen-specific IgA levels in nasal lavage fluid and IgG levels in serum were measured by ELISA.

[8] = system: Influenza HA protein antigen (A/California/7/2009(H1N1)pdm); assay: ELISA of antigen-specific IgA and IgG after nasal vaccination with CL401, CL413 or CL531 (Example 2); conditions: 1 µg HA alone or with 0.662 nmol or 6.62 nmol test compound
[9] = HA 0.1 µg + 0.1 µg TY001 S-form + 0.01% chondroitin sulfate sodium, compared with no additive
[10] = HA 0.1 µg + 0.1 µg TY001 S-form, nasal, twice, 3-week interval, day 35

CCCCCCCCCCCCCCCC(=O)OC[C@@H](CSC[C@H](N)C(=O)NCCCNCCCCNCCCNC(=O)CNC(=O)c1ccc(Cn2c(O)nc3c(N)nc(NCCCC)nc32)cc1)OC(=O)CCCCCCCCCCCCCCC [TY001 S-form, (20R,24S)-20-amino-1-(4-((6-amino-2-(butylamino)-8-hydroxy-9H-purin-9-yl)methyl)phenyl)-1,4,19-trioxo-22-thia-2,5,9,14,18-pentaazapentacosane-24,25-diyl dipalmitate]
HI antibody titer in serum [1]: showed an increase
Serum HI antibody titers, Geometric Mean Titer (GMT) [1]: 85.7
antigen-specific IgA in bronchoalveolar lavage fluid ([2]; nasal, day 35, Fig. 10): also induced
antigen-specific IgG in bronchoalveolar lavage fluid ([2]; nasal, day 35, Fig. 10): also induced
antibody-inducing ability (antigen-specific IgA in nasal wash fluid and bronchoalveolar lavage fluid, IgG in serum and bronchoalveolar lavage fluid) ([2]; compared with CTB, CpG ODN (ODN 1826), Poly(I:C) nasal and Alum 2 mg subcutaneous, day 35, Fig. 10): stronger antibody-inducing ability at a lower dose compared to any other adjuvant
viral titer in the nasal lavage fluid [3]: showed suppression of viral infection
antigen-specific IgA level in the nasal lavage fluid [4]: showed induction of antigen-specific IgA antibodies in the nasal cavity
antigen-specific IgG level in serum [4]: showed an increase
antigen-specific IgA level in the nasal lavage fluid (SARS-CoV-2 S protein; day 0 and 21, day 35, 2^3-fold dilution, Fig. 5): showed induction of antigen-specific IgA antibodies in the nasal cavity
antigen-specific IgG level in serum (SARS-CoV-2 S protein; day 0 and 21, day 35, 2^8-fold dilution, Fig. 6): showed an increase in antigen-specific IgG antibodies
antigen-specific IgG in serum ([5]; nasal, day 38, Fig. 9): dose-dependent induction of nasal IgA and serum IgG
antigen-specific IgA in nasal wash fluid ([5]; day 38, Fig. 9): dose-dependent induction of nasal IgA and serum IgG
viral titer in nasal wash fluid ([6]; HA 0.1 µg + TY001 S-form 0.1 µg + 0.01% chondroitin sulfate sodium, Fig. 8): no virus detected in any individual
viral titer in nasal wash fluid ([6]; HA 0.1 µg + TY001 S-form 0.3 µg + 0.01% chondroitin sulfate sodium, Fig. 8): no virus detected in any individual
viral titer in nasal wash fluid ([6]; twice, HA 0.1 µg alone or with TY001 S-form 0.01-0.3 µg and 0.01% chondroitin sulfate sodium, virus 1x10^5 TCID50/mouse day 35, day 38, Fig. 8): dose-dependent inhibition of viral infection
antibody-inducing effect, IgA in nasal wash fluid [7, 9]: stronger
antibody-inducing effect, IgG in serum [7, 9]: stronger
antigen-specific IgA in nasal wash fluid [7, 10]: induced
antigen-specific IgG in serum [7, 10]: induced

CCCCCCCCCCCCCCCC(=O)OC[C@H](CSC[C@H](N)C(=O)NCCCNCCCCNCCCNC(=O)CNC(=O)c1ccc(Cn2c(O)nc3c(N)nc(NCCCC)nc32)cc1)OC(=O)CCCCCCCCCCCCCCC [TY001 R-form, (20R,24R)-20-amino-1-(4-((6-amino-2-(butylamino)-8-hydroxy-9H-purin-9-yl)methyl)phenyl)-1,4,19-trioxo-22-thia-2,5,9,14,18-pentaazapentacosane-24,25-diyl dipalmitate]
HI antibody titer in serum [1]: showed an increase
Serum HI antibody titers, Geometric Mean Titer (GMT) [1]: 69.6
viral titer in the nasal lavage fluid [3]: showed suppression of viral infection
antigen-specific IgA level in the nasal lavage fluid [4]: showed induction of antigen-specific IgA antibodies in the nasal cavity
antigen-specific IgG level in serum [4]: showed an increase

CCCCCCCCCCCCCCCC(=O)OCC(CSC[C@H](N)C(=O)Nc1ccc(Cn2c(O)nc3c(N)nc(NCCCC)nc32)cc1)OC(=O)CCCCCCCCCCCCCCC (some centres unmarked) [CL401]
antigen-specific IgG antibodies in plasma ([8]; day 0 and day 14, day 27, rank order, Fig. 4 lower panel): CL413 > CL531 > CL401
antigen-specific IgA in nasal lavage fluid ([8]; day 0 and day 14, day 28, rank order, Fig. 4 upper panel): CL413 > CL531 > CL401
